Biological target: T1, hCRTH2 (Homo sapiens, UniProt Q9Y5Y4)
T1 construct: expressed in transfected cells; host or cells: HEK (human embryonic kidney) cells expressing hCRTH2
T1 sequence (Q9Y5Y4 1-395): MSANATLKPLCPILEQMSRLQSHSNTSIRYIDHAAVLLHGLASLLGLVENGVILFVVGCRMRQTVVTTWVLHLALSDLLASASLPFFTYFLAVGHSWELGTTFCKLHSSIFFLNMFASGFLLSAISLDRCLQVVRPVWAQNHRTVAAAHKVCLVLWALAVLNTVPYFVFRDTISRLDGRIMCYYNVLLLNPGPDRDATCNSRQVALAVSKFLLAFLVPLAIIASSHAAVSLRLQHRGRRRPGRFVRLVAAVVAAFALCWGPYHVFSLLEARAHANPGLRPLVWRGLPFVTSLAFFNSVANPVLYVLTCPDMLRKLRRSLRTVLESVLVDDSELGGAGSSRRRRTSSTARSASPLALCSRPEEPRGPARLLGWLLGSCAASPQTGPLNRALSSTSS
Assay: Radioligand Binding Assay B (scintillation proximity assay, [3H]-PGD2, HEK-hCRTH2 membranes)
Conditions: Radioligand Binding Assay B (SPA), values in text
Protocol: Radioligand binding also was performed using scintillation proximity assay (SPA) technology in a similar way as described above in Radioligand Binding Assay A with minor modification. Assays were done at room temperature in 10 mM HEPES pH 7.4, 1 mM EDTA containing 2 mM MnCl2 and 16 nM [^3H]-PGD2 (PerkinElmer, Waltham, Mass.) (164 Ci mmol^−1), in a final volume of 0.05 mL. Competing ligands were diluted in dimethylsulfoxide (Me2SO) and added using very low volumes (50 nL). The reaction was initiated by the addition of a mixture of 3.52 μg of membrane protein prepared from a human embryonic kidney (HEK)-hCRTH2 cell line adhered to 140 ug of wheatgerm agglutinin SPA beads (PerkinElmer). Total and non-specific binding were determined in the absence and the presence of 10 μM of a CRTH2 antagonist, respectively. The reaction was routinely conducted for 60 min at room temperature followed by centrifugation for 5 minutes at 1000 RPM. The radioactivity was measured with a TopCountNXT (PerkinElmer). Results determined using the SPA-based assay were similar to those from the filtration binding assay.

Ki [nM] | Structure (SMILES)
22.3 | O=C(O)CCCCc1cc2cc(C(=O)N[C@H]3CCOc4ccccc43)ccc2nc1-c1ccccc1 [Compound 1AL, (S)-5-(6-(chroman-4-ylcarbamoyl)-2-phenylquinolin-3-yl)pentanoic acid]
14 | O=C(O)CCCCc1cc2cc(C(=O)N3CCN(c4c(Cl)cncc4Cl)CC3)ccc2nc1-c1ccccc1 [Compound 1AY, 5-(6-(4-(3,5-dichloropyridin-4-yl)piperazine-1-carbonyl)-2-phenylquinolin-3-yl)pentanoic acid]
11.6 | O=C(O)CCCCc1cc2cc(C(=O)N3CCN(c4ccccc4)CC3)ccc2nc1-c1ccc(F)cc1 [Compound 5AF, 5-(2-(4-fluorophenyl)-6-(4-phenylpiperazine-1-carbonyl)quinolin-3-yl)pentanoic acid]

Same assay, conditions: Table B, Radioligand Binding Assay B (SPA), rated A-D

Ki [nM] | Structure (SMILES)
20.1 to 200 | C[C@@H](NC(=O)c1ccc2nc(-c3ccccc3)c(CCCCC(=O)O)cc2c1)c1ccc(F)cc1 [Compound 1AH, (R)-5-(6-((1-(4-fluorophenyl)ethyl)carbamoyl)-2-phenylquinolin-3-yl)pentanoic acid]
2.1 to 20 | O=C(O)CCCCc1cc2cc(C(=O)N3CC(c4cccc(F)c4)C3)ccc2nc1-c1ccccc1 [Compound 1AJ, 5-(6-(3-(3-fluorophenyl)azetidine-1-carbonyl)-2-phenylquinolin-3-yl)pentanoic acid]
20.1 to 200 | CN(Cc1ccc(F)cc1)C(=O)c1ccc2nc(-c3ccccc3)c(CCCCC(=O)O)cc2c1 [Compound 1AK, 5-(6-((4-fluorobenzyl)(methyl)carbamoyl)-2-phenylquinolin-3-yl)pentanoic acid]
20.1 to 200 | O=C(O)CCCCc1cc2cc(C(=O)N[C@H]3CCOc4ccccc43)ccc2nc1-c1ccccc1 [Compound 1AL, (S)-5-(6-(chroman-4-ylcarbamoyl)-2-phenylquinolin-3-yl)pentanoic acid]
20.1 to 200 | O=C(O)CCCCc1cc2cc(C(=O)N3CC[C@H](c4ccc(F)cc4)C3)ccc2nc1-c1ccccc1 [Compound 1AM, (R)-5-(6-(3-(4-fluorophenyl)pyrrolidine-1-carbonyl)-2-phenylquinolin-3-yl)pentanoic acid]
2.1 to 20 | O=C(O)CCCCc1cc2cc(C(=O)N3CC[C@@H](c4ccc(F)cc4)C3)ccc2nc1-c1ccccc1 [Compound 1AN, (S)-5-(6-(3-(4-fluorophenyl)pyrrolidine-1-carbonyl)-2-phenylquinolin-3-yl)pentanoic acid]
20.1 to 200 | CC1(C)CC(NC(=O)c2ccc3nc(-c4ccccc4)c(CCCCC(=O)O)cc3c2)c2ccccc2O1 (centres unmarked) [Compound 1AP, 5-(6-((2,2-dimethylchroman-4-yl)carbamoyl)-2-phenylquinolin-3-yl)pentanoic acid]
2.1 to 20 | CC1(C)CCC(NC(=O)c2ccc3nc(-c4ccccc4)c(CCCCC(=O)O)cc3c2)c2ccccc21 (centres unmarked) [Compound 1AQ, 5-(6-((4,4-dimethyl-1,2,3,4-tetrahydronaphthalen-1-yl)carbamoyl)-2-phenylquinolin-3-yl)pentanoic acid]
2.1 to 20 | N#CC1(c2ccccc2)CCN(C(=O)c2ccc3nc(-c4ccccc4)c(CCCCC(=O)O)cc3c2)C1 (centres unmarked) [Compound 1AR, 5-(6-(3-cyano-3-phenylpyrrolidine-1-carbonyl)-2-phenylquinolin-3-yl)pentanoic acid]
2.1 to 20 | O=C(O)CCCCc1cc2cc(C(=O)NC3CC(=O)Nc4ccccc43)ccc2nc1-c1ccccc1 (centres unmarked) [Compound 1AS, 5-(6-((2-oxo-1,2,3,4-tetrahydroquinolin-4-yl)carbamoyl)-2-phenylquinolin-3-yl)pentanoic acid]
20.1 to 200 | CC(C)(NC(=O)c1ccc2nc(-c3ccccc3)c(CCCCC(=O)O)cc2c1)c1ccc(F)cc1 [Compound 1AT, 5-(6-((2-(4-fluorophenyl)propan-2-yl)carbamoyl)-2-phenylquinolin-3-yl)pentanoic acid]
20.1 to 200 | O=C(O)CCCCc1cc2cc(C(=O)N3CCC(n4c(=O)[nH]c5ccccc54)CC3)ccc2nc1-c1ccccc1 [Compound 1AU, 5-(6-(4-(2-oxo-2,3-dihydro-1H-benzo[d]imidazol-1-yl)piperidine-1-carbonyl)-2-phenylquinolin-3-yl)pentanoic acid]
2.1 to 20 | O=C(O)CCCCc1cc2cc(C(=O)N3CCC4(CC3)OCc3ccccc34)ccc2nc1-c1ccccc1 [Compound 1AV, 5-(2-phenyl-6-(3H-spiro[isobenzofuran-1,4′-piperidin]-1′-ylcarbonyl)quinolin-3-yl)pentanoic acid]
20.1 to 200 | O=C(O)CCCCc1cc2cc(C(=O)N3CCN(c4ccccn4)CC3)ccc2nc1-c1ccccc1 [Compound 1AW, 5-(2-phenyl-6-(4-(pyridin-2-yl)piperazine-1-carbonyl)quinolin-3-yl)pentanoic acid]
20.1 to 200 | N#Cc1cccnc1N1CCN(C(=O)c2ccc3nc(-c4ccccc4)c(CCCCC(=O)O)cc3c2)CC1 [Compound 1AX, 5-(6-(4-(3-cyanopyridin-2-yl)piperazine-1-carbonyl)-2-phenylquinolin-3-yl)pentanoic acid]
2.1 to 20 | O=C(O)CCCCc1cc2cc(C(=O)N3CCN(c4c(Cl)cncc4Cl)CC3)ccc2nc1-c1ccccc1 [Compound 1AY, 5-(6-(4-(3,5-dichloropyridin-4-yl)piperazine-1-carbonyl)-2-phenylquinolin-3-yl)pentanoic acid]

Ki [nM] | Structure (SMILES)
2.1 to 20 | N#Cc1ccccc1N1CCN(C(=O)c2ccc3nc(-c4ccccc4)c(CCCCC(=O)O)cc3c2)CC1 [Compound 1AZ, 5-(6-(4-(2-cyanophenyl)piperazine-1-carbonyl)-2-phenylquinolin-3-yl)pentanoic acid]
2.1 to 20 | O=C(O)CCCCc1cc2cc(C(=O)N3CCN(c4ccccc4)CC3)ccc2nc1-c1ccccc1 [Compound 1Ai, 5-(2-phenyl-6-(4-phenylpiperazine-1-carbonyl)quinolin-3-yl)pentanoic acid]
20.1 to 200 | O=C(O)CCCCc1cc2cc(C(=O)N[C@H]3COc4ccccc43)ccc2nc1-c1ccccc1 [Compound 1Ao, (R)-5-(6-((2,3-dihydrobenzofuran-3-yl)carbamoyl)-2-phenylquinolin-3-yl)pentanoic acid]
2.1 to 20 | O=C(O)CCCCc1cc2cc(C(=O)N3CCN(c4ccccc4Cl)CC3)ccc2nc1-c1ccccc1 [Compound 1BA, 5-(6-(4-(2-chlorophenyl)piperazine-1-carbonyl)-2-phenylquinolin-3-yl)pentanoic acid]
2.1 to 20 | Cc1ccccc1N1CCN(C(=O)c2ccc3nc(-c4ccccc4)c(CCCCC(=O)O)cc3c2)CC1 [Compound 1BB, 5-(2-phenyl-6-(4-(o-tolyl)piperazine-1-carbonyl)quinolin-3-yl)pentanoic acid]
2.1 to 20 | Cc1cccc(N2CCN(C(=O)c3ccc4nc(-c5ccccc5)c(CCCCC(=O)O)cc4c3)CC2)c1 [Compound 1BC, 5-(2-phenyl-6-(4-(m-tolyl)piperazine-1-carbonyl)quinolin-3-yl)pentanoic acid]
2.1 to 20 | COc1ccc(N2CCN(C(=O)c3ccc4nc(-c5ccccc5)c(CCCCC(=O)O)cc4c3)CC2)cc1 [Compound 1BD, 5-(6-(4-(4-methoxyphenyl)piperazine-1-carbonyl)-2-phenylquinolin-3-yl)pentanoic acid]
2.1 to 20 | O=C(O)CCCCc1cc2cc(C(=O)N[C@@H]3CCOc4ccccc43)ccc2nc1-c1ccc(F)cc1 [Compound 5AD, (R)-5-(6-(chroman-4-ylcarbamoyl)-2-(4-fluorophenyl)quinolin-3-yl)pentanoic acid]
2.1 to 20 | O=C(O)CCCCc1cc2cc(C(=O)N[C@@H]3CCCc4cc(F)ccc43)ccc2nc1-c1ccc(F)cc1 [Compound 5AE, (R)-5-(6-((6-fluoro-1,2,3,4-tetrahydronaphthalen-1-yl)carbamoyl)-2-(4-fluorophenyl)quinolin-3-yl)pentanoic acid]
2.1 to 20 | O=C(O)CCCCc1cc2cc(C(=O)N3CCN(c4ccccc4)CC3)ccc2nc1-c1ccc(F)cc1 [Compound 5AF, 5-(2-(4-fluorophenyl)-6-(4-phenylpiperazine-1-carbonyl)quinolin-3-yl)pentanoic acid]
20.1 to 200 | O=C(O)CCCCc1cc2cc(C(=O)N3CC(c4cccc(F)c4)C3)ccc2nc1-c1ccc(F)cc1 [Compound 5AG, 5-(2-(4-fluorophenyl)-6-(3-(3-fluorophenyl)azetidine-1-carbonyl)quinolin-3-yl)pentanoic acid]
2.1 to 20 | O=C(O)CCCCc1cc2cc(C(=O)N3CC[C@@H](c4ccccc4)C3)ccc2nc1-c1ccc(F)cc1 [Compound 5AH, (S)-5-(2-(4-fluorophenyl)-6-(3-phenylpyrrolidine-1-carbonyl)quinolin-3-yl)pentanoic acid]
2.1 to 20 | CC1(C)CC(NC(=O)c2ccc3nc(-c4ccc(F)cc4)c(CCCCC(=O)O)cc3c2)c2ccccc2O1 (centres unmarked) [Compound 5AJ, 5-(6-((2,2-dimethylchroman-4-yl)carbamoyl)-2-(4-fluorophenyl)quinolin-3-yl)pentanoic acid]
2.1 to 20 | CC1(C)CCC(NC(=O)c2ccc3nc(-c4ccc(F)cc4)c(CCCCC(=O)O)cc3c2)c2ccccc21 (centres unmarked) [Compound 5AK, 5-(6-((4,4-dimethyl-1,2,3,4-tetrahydronaphthalen-1-yl)carbamoyl)-2-(4-fluorophenyl)quinolin-3-yl)pentanoic acid]
2.1 to 20 | O=C(O)CCCCc1cc2cc(C(=O)NC3CC(=O)Nc4ccccc43)ccc2nc1-c1ccc(F)cc1 (centres unmarked) [Compound 5AL, 5-(2-(4-fluorophenyl)-6-((2-oxo-1,2,3,4-tetrahydroquinolin-4-yl)carbamoyl)quinolin-3-yl)pentanoic acid]
2.1 to 20 | O=C(O)CCCCc1cc2cc(C(=O)N3CC(c4ccccc4)C3)ccc2nc1-c1ccc(F)cc1 [Compound 5AM, 5-(2-(4-fluorophenyl)-6-(3-phenylazetidine-1-carbonyl)quinolin-3-yl)pentanoic acid]
